{"source": "patent US20260347280A1", "about": "“DEUTERATED HINOKITIOL DERIVATIVES” (priority 2022, published 2026)", "key": {"[1]": {"experiment": "Liposome efflux assay (Fe3+ liposomal efflux, cell-free iron efflux)", "format": "biochemical", "conditions": "for iron mobilization capacity / cell-free iron transport, effect of deuteration: deuterated vs protio compound, cell-free iron efflux, 37 °C, 40 min; for iron transport capability at higher concentrations: Fe3+ liposomal efflux, 50-150 μM, compared with hinokitiol or Tri-Methyl", "experimental": "After evaporation under a stream of nitrogen, films were placed under hi-vacuum for 18 hours to ensure quantitative solvent removal. […] LUVs were subjected to size exclusion chromatography, using a ~20 cm column of Sephadex® G-50 Medium resin that was hydrated in liposome outside buffer (600 mM sodium ascorbate, 50 mM MES/TRIS pH 7.0).\nDetermination of total phosphorous was performed utilizing the Bartlett Assay. Briefly, the LUV suspension was diluted 10-fold in liposome outside buffer, then 10 μL of this solution was placed in three 7 mL vials along with 10 μL of liposome outside buffer for background. […] The samples were then allowed to fully cool and diluted using 3.9 mL of Milli-Q water. […] of 2.5% w/v ammonium molybdate was then added, then the samples were vortexed, then […] of 10% w/v ascorbic acid was added. The samples were then re-vortexed, capped, and heated at 100 °C for seven minutes. The samples were allowed to fully cool then read at A820 and compared to a phosphorous standard curve to determine the total quantity of phosphorous.\n16 mL of liposome suspension was created with the following components: […] of ferrozine solution (100× stock, 50 mM in liposome outside buffer), LUV suspension (to a final concentration of 1 mM phosphorous), and liposome outside buffer up to 16 mL. […] of liposome suspension was then added to a 96 well plate (NUM) using a multichannel pipettor. The plate was then placed in a plate reader and equilibrated at 37 °C for 5 minutes, then read for a baseline measurement. Following this equilibration, compound was added at the designated concentrations (40× stock in DMSO) using a multichannel pipettor, and the plate was then incubated at 37 °C for 40 min. Reads were taken every minute at A562 and the plate mixed at 220 rpm. Total iron efflux was determined via […]-iron complex signal. These experiments were performed in triplicate, with a minimum of two biological replicates."}, "[2]": {"experiment": "Dynamic light scattering (aggregation)", "format": "physicochemical", "conditions": "for aggregation tendency: aqueous media, in words", "experimental": "Dynamic light scattering was performed on a Malvern Zetasizer Nano using disposable cuvettes. […] Compound at the specified concentration (from 1000× in DMSO), as well as equimolar FeCl3 (1000× in 0.1 M HCl) were added to this buffer. After addition, these compounds were vortexed for 30 sec, sonicated for one min, then further vortexed for 30 sec before a five-minute equilibration in the Zetasizer at 37 °C. All standard parameters were used, with each graph representing a minimum of thirty 10 second measurements. For count rate analysis, the raw count rate was utilized, accounting for any differences in attenuator position between samples."}, "[3]": {"conditions": "compared with hinokitiol; cited from earlier work"}, "[4]": {"tested_on": "shDMT1-Caco-2 monolayer", "experiment": "Iron transport in differentiated shDMT1(-Caco-2) monolayers", "format": "cell-based"}, "[5]": {"experiment": "Complex formation with iron / crystallographic data", "format": "physicochemical"}, "[6]": {"conditions": "background; cited from earlier work"}, "[7]": {"tested_on": "divalent metal transporter 1 (DMT1−) deficient cells and animals", "conditions": "cited from earlier work"}, "[8]": {"tested_on": "mitoferrin 1 (MFRN1−) deficient cells and animals", "conditions": "cited from earlier work"}, "[9]": {"tested_on": "ferroportin 1 (FPN1−) deficient cells and animals", "conditions": "cited from earlier work"}}, "note": "Entries after “also recorded” stand apart in the source; their conditions may differ.", "data": [{"molecule": "CCCCc1cccc(=O)c(O)c1", "note": "[4 nBu, 2-hydroxy-4-butylcyclohepta-2,4,6-trien-1-one]", "values": [{"measurement": "concentration of compound at which noticeable transport ceases", "setting": "[1]; liposome efflux assay, due to higher order aggregation", "result": 40, "unit": "µM"}, {"measurement": "aggregation tendency", "setting": "[2]", "result": "highly aggregating"}]}, {"molecule": "[2H]C([2H])([2H])C([2H])([2H])C([2H])([2H])C([2H])([2H])c1cccc(=O)c(O)c1", "note": "[4 nBu-d9, 2-hydroxy-4-(butyl-d9)cyclohepta-2,4,6-trien-1-one]", "values": [{"measurement": "iron mobilization capacity / cell-free iron transport, effect of deuteration", "setting": "[1]", "result": "maintains transport levels at concentrations when the parent compound suffers from limiting higher order aggregation"}, {"measurement": "iron mobilization capacity / cell-free iron transport, effect of deuteration", "setting": "[1]; listed as 4-n-buytl-(d9)-tropolone", "result": "extends transport window"}, {"measurement": "concentration of compound up to which noticeable transmembrane transport of iron is demonstrated", "setting": "[1]; liposome efflux assay, before dropping to baseline", "result": 75, "unit": "µM"}]}, {"molecule": "CC(C)c1ccc(O)c(=O)cc1", "note": "[GT]", "values": [{"measurement": "iron mobilization capacity / cell-free iron transport, effect of deuteration", "setting": "[1]", "result": "no deuteration effect on cell-free iron transport"}, {"measurement": "aggregation, previously shown", "setting": "[3]", "result": "less aggregation"}]}, {"molecule": "Cc1cc(C)c(O)c(=O)c(C)c1", "note": "[Tri-Methyl]", "values": [{"measurement": "aggregation tendency", "setting": "[2]", "result": "aggregates less"}]}, {"molecule": "[2H]C([2H])([2H])C([2H])(c1cccc(=O)c(O)c1)C([2H])([2H])[2H]", "note": "[hinokitiol-d7, 2-hydroxy-4-(isopropyl-d7)-cyclohepta-2,4,6-trien-1-one]", "values": [{"measurement": "iron transport capability at higher concentrations", "setting": "[1]", "result": "significantly greater iron transport capability at higher concentrations (50-150 μM) when compared to hinokitiol"}, {"measurement": "aggregation by dynamic light scattering", "setting": "[2]; 20-100 μM with equimolar iron, pH 7.0, 37 °C", "result": "aggregates less via lesser photon deflection counts and particle size"}]}, {"molecule": "CC(C)c1cccc(=O)c(O)c1", "note": "[hinokitiol]", "values": [{"measurement": "iron transport capability at higher concentrations", "setting": "[1]", "result": "begins to aggregate"}, {"measurement": "aggregation tendency", "setting": "[2]", "result": "predisposed at higher concentrations to form higher-order aggregates; also recorded: formation of higher-order aggregates in aqueous media"}, {"measurement": "aggregation tendency", "setting": "[2]; listed as Hinokitiol", "result": "highly aggregative"}, {"measurement": "iron transport / mobilization", "setting": "[4]", "result": "effectively mobilizes iron at low-to-intermediate concentrations; also recorded: at higher concentrations, a substantial decrease in transmembrane mobilizing activity was observed"}, {"measurement": "complex formation with Fe(III)", "setting": "[5]", "result": "forms a 3:1 complex with Fe(III)"}, {"measurement": "complex formation with iron", "setting": "[6]", "result": "reversibly forming a 3:1 complex with iron"}, {"measurement": "restoration of iron homeostasis", "setting": "[7]", "result": "restores iron homeostasis"}, {"measurement": "restoration of iron homeostasis", "setting": "[8]", "result": "restores iron homeostasis"}, {"measurement": "restoration of iron homeostasis", "setting": "[9]", "result": "restores iron homeostasis"}]}]}
